For one test, the target named is Cat L (UniProt P07711). The test can be described thus: Cathepsin enzyme inhibition assay (fluorogenic peptide substrate Z-Val-Val-Arg-AMC), Cathepsin L. Type of test: biochemical, human and mouse. To be noted: enzyme 1 nM, substrate 20 μM, pH 6.5; read-out: CatL IC50. Put shortly: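 Fluorogenic cleavage of Z-Val-Val-Arg-AMC (20 μM) by 1 nM Cat L was monitored at ex 360/em 465 nm for 20 min, the linear phase. The buffer was 100 mM potassium phosphate pH 6.5 with 5 mM EDTA and DTT. IC50 values were derived by standard methods, in μM.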

A further test deals with Cathepsin S (UniProt P25774). As to the kind of experiment: Cathepsin enzyme inhibition assay (fluorogenic peptide substrate Z-Val-Val-Arg-AMC), Cathepsin S. The following applies: enzyme 1 nM, substrate 20 μM, pH 6.5; read-out: CatS IC50. Type of test: biochemical, human and mouse. Put shortly:
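Compounds were combined with 1 nM human or mouse enzyme, and substrate then started the reaction. The buffer was potassium phosphate (100 mM, pH 6.5) containing EDTA-Na 5 mM, Triton X-100 0.001% and […] 5 mM.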

The results in this text go back to patent US8163793B2, “Proline derivatives” (Hoffman-La Roche Inc., priority 2009, dated 2012).

Where a name gives a salt, the structure may show the parent alone. Where only a bound is given, the exact number is not on record here.

Regarding `CCN1CCN(c2ccc(S(=O)(=O)[C@@H]3C[C@@H](C(=O)NC4(C#N)CC4)N(C(=O)C4(C(F)(F)F)CC4)C3)c(Cl)c2)CC1` [Example 141, (2S,4R)-4-[2-Chloro-4-(4-ethyl-piperazin-1-yl)-benzenesulfonyl]-1-(1-trifluoromethyl-cyclopropanecarbonyl)-pyrrolidine-2-carboxylic acid (1-cyano-cyclopropyl)-amide], the IC50 (commonly the concentration that inhibits the measured activity by half) at Cat L was 3460 nM; on Cathepsin S, 0.6 nM.

On to `N#CC1(NC(=O)[C@@H]2C[C@@H](S(=O)(=O)c3ccccc3C(F)(F)F)CN2C(=O)C2(c3ccc(Cl)cc3)CCC2)CC1` [Example 360, (2S,4R)-1-[1-(4-Chloro-phenyl)-cyclobutanecarbonyl]-4-(2-trifluoromethyl-benzenesulfonyl)-pyrrolidine-2-carboxylic acid (1-cyano-cyclopropyl)-amide], for which the IC50 on Cat L stood at 1180 nM; at Cathepsin S it was 0.185 nM.

As to `N#CC1(NC(=O)[C@@H]2C[C@@H](S(=O)(=O)c3ccc(OCC(F)(F)F)cc3Cl)CN2C(=O)c2ccccc2C(F)(F)F)CC1` [Example 177, (2S,4R)-4-[2-Chloro-4-(2,2,2-trifluoro-ethoxy)-benzenesulfonyl]-1-(2-trifluoromethyl-benzoyl)-pyrrolidine-2-carboxylic acid (1-cyano-cyclopropyl)-amide], the figures for the IC50 at Cat L and on Cathepsin S were 5830 nM and 0.29 nM, respectively.

In the case of `Cc1cc(N2C[C@H](S(=O)(=O)c3ccccc3C(F)(F)F)C[C@H]2C(=O)NC2(C#N)CC2)n(-c2ccnc3ccccc23)n1` [Example 352, (2S,4R)-1-(5-Methyl-2-quinolin-4-yl-2H-pyrazol-3-yl)-4-(2-trifluoromethyl-benzenesulfonyl)-pyrrolidine-2-carboxylic acid (1-cyano-cyclopropyl)-amide], the IC50 on Cat L came to 7230 nM; on Cathepsin S it was 0.25 nM.

With `Cc1ccc(S(=O)(=O)[C@H]2CN[C@H](C(=O)NC3(C#N)CC3)C2)c(C)c1` [Example 49, (2S,4R)-4-(2,4-Dimethyl-benzenesulfonyl)-pyrrolidine-2-carboxylic acid (1-cyano-cyclopropyl)-amide Hydrochloride], the half-inhibitory concentration (IC50) stood at 6920 nM on Cat L and 1.8 nM on Cathepsin S.

Take `N#CC1(NC(=O)C2C[C@@H](S(=O)(=O)c3ccc(OCC(F)(F)F)cc3Cl)CN2C(=O)C2(c3ccc(Cl)nc3)CC2)CC1` (stereo in doubt) [Example 377, (R)-1-[1-(6-Chloro-pyridin-3-yl)-cyclopropanecarbonyl]-4-[2-chloro-4-(2,2,2-trifluoro-ethoxy)-benzenesulfonyl]-pyrrolidine-2-carboxylic acid (1-cyano-cyclopropyl)-amide]: the IC50 on Cat L stood at 293 nM; on Cathepsin S, 0.24 nM.

As for `Cc1cc(N2C[C@H](S(=O)(=O)c3ccc(N4CC(F)(F)C4)cc3Cl)C[C@H]2C(=O)NC2(C#N)CC2)n(C2CCOCC2)n1` [Example 464, (2S,4R)-4-(2-chloro-4-(3,3-difluoroazetidin-1-yl)phenylsulfonyl)-N-(1-cyanocyclopropyl)-1-(3-methyl-1-(tetrahydro-2H-pyran-4-yl)-1H-pyrazol-5-yl)pyrrolidine-2-carboxamide], the results for the IC50 at Cat L and on Cathepsin S were 3020 nM and 1.15 nM, respectively.

Take `CC1(C(=O)N2C[C@H](S(=O)(=O)CC3CC3)C[C@H]2C(=O)NC2(C#N)CC2)CC1` [Example 454, (2S,4R)-4-Cyclopropylmethanesulfonyl-1-(1-methyl-cyclopropanecarbonyl)-pyrrolidine-2-carboxylic acid (1-cyano-cyclopropyl)-amide]: the IC50 at Cat L is not below 25000 nM; at Cathepsin S, 1660 nM.

Regarding `N#CC1(NC(=O)[C@@H]2C[C@@H](S(=O)(=O)c3ccccc3Cl)CN2C(=O)C2(c3ccc(I)cc3)CC2)CC1` [Example 459, (2S,4R)-4-(2-Chloro-benzenesulfonyl)-1-[1-(4-iodo-phenyl)-cyclopropanecarbonyl]-pyrrolidine-2-carboxylic acid (1-cyano-cyclopropyl)-amide], the IC50 at Cat L came out at 6.5 nM; at Cathepsin S, 0.505 nM.

On to `Cc1cccc(-n2nc(C)cc2N2C[C@H](S(=O)(=O)c3ccccc3C(F)(F)F)C[C@H]2C(=O)NC2(C#N)CC2)c1` [Example 276, (2S,4R)-1-(5-Methyl-2-m-tolyl-2H-pyrazol-3-yl)-4-(2-trifluoromethyl-benzenesulfonyl)-pyrrolidine-2-carboxylic acid (1-cyano-cyclopropyl)-amide], for which the IC50 at Cat L was determined as 9430 nM; at Cathepsin S, 0.392 nM.

As for `N#CCNC(=O)[C@@H]1C[C@@H](S(=O)(=O)c2ccccc2C(F)(F)F)CN1c1ccccc1[N+](=O)[O-]` [Example 164, (2S,4R)-1-(2-Nitro-phenyl)-4-(2-trifluoromethyl-benzenesulfonyl)-pyrrolidine-2-carboxylic acid cyanomethyl-amide], the IC50 at Cat L is not below 25000 nM; at Cathepsin S, 0.8 nM.

For `N#CC1(NC(=O)[C@@H]2C[C@@H](S(=O)(=O)c3ccc(Cl)cc3Cl)CN2C(=O)C2(c3ccccc3)CC2)CC1` [Example 224, (2S,4R)-4-(2,4-Dichloro-benzenesulfonyl)-1-(1-phenyl-cyclopropanecarbonyl)-pyrrolidine-2-carboxylic acid (1-cyano-cyclopropyl)-amide], the values for the IC50 on Cat L and on Cathepsin S were 1000 nM and 0.2 nM, respectively.

Consider `N#CC1(NC(=O)[C@@H]2C[C@@H](S(=O)(=O)c3ccccc3Cl)CN2C(=O)C2(c3ccncc3)CC2)CC1` [Example 285, (2S,4R)-4-(2-Chloro-benzenesulfonyl)-1-(1-pyridin-4-yl-cyclopropanecarbonyl)-pyrrolidine-2-carboxylic acid (1-cyano-cyclopropyl)-amide], for which the IC50 at Cat L was found to be 2600 nM; on Cathepsin S it was 0.227 nM.

`N#CC1(NC(=O)[C@@H]2C[C@@H](S(=O)(=O)c3ccccc3Cl)CN2S(=O)(=O)c2ccc(Cl)cc2)CC1` [Example 315, (2S,4R)-4-(2-Chloro-benzenesulfonyl)-1-(4-chloro-benzenesulfonyl)-pyrrolidine-2-carboxylic Acid (1-cyano-cyclopropyl)-amide]: the IC50 was 2500 nM on Cat L and 0.39 nM on Cathepsin S.

As to `C[C@H](Oc1ccc(S(=O)(=O)[C@@H]2C[C@H](C(=O)NC3(C#N)CC3)N(C(=O)C3(C)CC3)C2)c(Cl)c1)C(F)(F)F` [Example 200, (2R,4R)-4-[2-Chloro-4-((S)-2,2,2-trifluoro-1-methyl-ethoxy)-benzenesulfonyl]-1-(1-methyl-cyclopropanecarbonyl)-pyrrolidine-2-carboxylic acid (1-cyano-cyclopropyl)-amide], the IC50 was not below 25000 nM at Cat L and 46.7 nM on Cathepsin S.

With `CC(C)(C)N1CCN(c2ccc(S(=O)(=O)[C@@H]3C[C@@H](C(=O)NC4(C#N)CC4)N(C(=O)C4(C(F)(F)F)CC4)C3)c(Cl)c2)CC1` [Example 296, (2S,4R)-4-[4-(4-tert-Butyl-piperazin-1-yl)-2-chloro-benzenesulfonyl]-1-(1-trifluoromethyl-cyclopropanecarbonyl)-pyrrolidine-2-carboxylic acid (1-cyano-cyclopropyl)-amide], the values for the IC50 on Cat L and on Cathepsin S were 1180 nM and 0.123 nM, respectively.

Turning to `N#CC1(NC(=O)C2CC(S(=O)(=O)c3ccccc3C(F)(F)F)CN2C2CCOCC2)CC1` (centres unmarked) [Example 362, 1-(Tetrahydro-pyran-4-yl)-4-(2-trifluoromethyl-benzenesulfonyl)-pyrrolidine-2-carboxylic acid (1-cyano-cyclopropyl)-amide], the IC50 at Cat L is not below 25000 nM; at Cathepsin S, 380 nM.

`N#CC1(NC(=O)[C@@H]2C[C@@H](S(=O)(=O)c3ccc(Cl)cc3Cl)CN2c2ccccc2[N+](=O)[O-])CC1` [Example 167, (2S,4R)-4-(2,4-Dichloro-benzenesulfonyl)-1-(2-nitro-phenyl)-pyrrolidine-2-carboxylic acid (1-cyano-cyclopropyl)-amide]: the IC50 at Cat L turned out to be 17400 nM; on Cathepsin S, 1.4 nM.

Take `CC(C)C(C(=O)N1C[C@H](S(=O)(=O)c2ccccc2Cl)C[C@H]1C(=O)NC1(C#N)CC1)c1ccc(Cl)cc1` (stereo partly drawn) [Example 432, (2S,4R)-1-(2-(4-chlorophenyl)-3-methylbutanoyl)-4-(2-chlorophenylsulfonyl)-N-(1-cyanocyclopropyl)pyrrolidine-2-carboxamide]: the IC50 at Cat L was 115 nM; on Cathepsin S, 0.595 nM.

On to `N#CC1(NC(=O)[C@@H]2C[C@@H](S(=O)(=O)c3ccccc3Cl)CN2C(=O)C2(c3ccc(C(F)(F)F)cc3)CC2)CC1` [Example 427, (2S,4R)-4-(2-chlorophenylsulfonyl)-N-(1-cyanocyclopropyl)-1-(1-(4-(trifluoromethyl)phenyl)cyclopropanecarbonyl)pyrrolidine-2-carboxamide], for which the IC50 on Cat L is 95 nM; on Cathepsin S, 0.51 nM.

On to `N#CC1(NC(=O)[C@@H]2C[C@@H](S(=O)(=O)c3ccc(N4CCN5CCC[C@H]5C4)cc3Cl)CN2C(=O)C2(c3ccc(Cl)nc3)CC2)CC1` [Example 373, (2S,4R)-4-((S)-2-Chloro-4-hexahydro-pyrrolo[1,2-a]pyrazin-2-yl-benzenesulfonyl)-1-[1-(6-chloro-pyridin-3-yl)-cyclopropanecarbonyl]-pyrrolidine-2-carboxylic acid (1-cyano-cyclopropyl)-amide; Compound with Formic Acid], for which the IC50 on Cat L amounted to 42.7 nM; on Cathepsin S, 0.08 nM.

`N#CCNC(=O)[C@@H]1C[C@@H](S(=O)(=O)c2ccccc2C(F)(F)F)CN1C(=O)c1ccccc1` [Example 71, (2S,4R)-1-Benzoyl-4-(2-trifluoromethyl-benzenesulfonyl)-pyrrolidine-2-carboxylic acid cyanomethyl-amide]: the IC50 is not below 25000 nM on Cat L and 0.5 nM at Cathepsin S.
